Data reported in patent US10407467B2, “Polymyxin derivatives and their use in combination therapy together with different antibiotics” (priority 2013, dated 2019).
Counter-ions that a name gives are not always drawn. Bridge positions count the residues as written; N and C are the ends. Square brackets hold non-standard residues; d marks the D form. Peptide text beside a SMILES is read from it. * marks the point of attachment. ξ: configuration not given here. ξHexahydromandeloyl = O=C(C(O)C1CCCCC1)*; Thr(3ξ) = CC(O)[C@H](N)C(=O)O; Dab = NCC[C@H](N)C(=O)O; Dap = NC[C@H](N)C(=O)O; X4 = NC1CCCC1C(=O)*

Key:
Type in all cases: cell-based
Acinetobacter baumannii [1] = assay: MIC, sole activity (no second agent); conditions: in the absence of Rifampicin; for MIC A. baumannii ATCC13424: strain ATCC13424; for MIC A. baumannii ATCCBAA-747: strain ATCCBAA-747; for MIC A. baumannii CCUG57249: strain CCUG 57249; for MIC A. baumannii NCTC 13423: strain NCTC13423
Procedure, shortened: (§1)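 Compound tested without a second agent in cation-adjusted MHB, up to four strains per species, inoculum at 0.5 McFarland from colonies grown 18-24 h on Mueller-Hinton agar. Run in duplicate, invalid beyond 2-fold disagreement, lower duplicate or modal repeat value given, expressed relative to Polymyxin B.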

Pseudomonas aeruginosa [2] = assay: MIC, sole activity (no second agent); conditions: in the absence of Rifampicin; for MIC P. aeruginosa ATCC 27853: strain ATCC27853; for MIC P. aeruginosa ATCC-47: strain ATCC-47; for MIC P. aeruginosa ATCCCRM-9027: strain ATCCCRM-9027; for MIC P. aeruginosa CCUG 59626: strain CCUG 59626
Procedure, shortened: as §1

Escherichia coli [3] = assay: MIC, sole activity (no second agent); conditions: in the absence of Rifampicin; for MIC E. coli NCTC9001: strain NCTC9001
Procedure, shortened: as §1

Klebsiella pneumoniae [4] = assay: MIC, sole activity (no second agent); conditions: in the absence of Rifampicin; for MIC K. pneumoniae ATCC 4352: strain ATCC 4352; for MIC K. pneumoniae ATCC-BAA2146: strain ATCC-BAA2146; for MIC K. pneumoniae CCUG-59348: strain CCUG-59348
Procedure, shortened: as §1

Acinetobacter baumannii [5] = assay: MIC, compound in combination with a second agent (broth microdilution); conditions: 1:1 (wt:wt) combination with Rifampicin, MIC = total drug concentration; for MIC A. baumannii CCUG57249: strain CCUG57249; for MIC A. baumannii NCTC 13423: strain NCTC 13423; for MIC A. baumannii NCTC 13424: strain NCTC 13424
Procedure, shortened: (§2)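 Broth microdilution with inoculum from 18-24 h Mueller-Hinton agar colonies adjusted to 0.5 McFarland, up to four strains per species. Compound combined 1:1 w/w with second agent (e.g. rifampicin), mass as salt form; MIC is total drug concentration. Duplicates, lower value reported if within 2-fold; modal value for repeat tests.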

Pseudomonas aeruginosa [6] = assay: as above; conditions: 1:1 (wt:wt) combination with Rifampicin, MIC = total drug concentration; for MIC P. aeruginosa ATCC 27853: strain ATCC 27853; for MIC P. aeruginosa ATCC CRM-9027: strain ATCC CRM-9027; for MIC P. aeruginosa ATCC-47: strain ATCC-47; for MIC P. aeruginosa CCUG 59626: strain CCUG 59626
Procedure, shortened: as §2

Escherichia coli [7] = assay: as above; conditions: 1:1 (wt:wt) combination with Rifampicin, MIC = total drug concentration; for MIC E. coli ATCC25922: strain ATCC25922
Procedure, shortened: as §2

Klebsiella pneumoniae [8] = assay: as above; conditions: 1:1 (wt:wt) combination with Rifampicin, MIC = total drug concentration; for MIC K. pneumoniae ATCC 4352: strain ATCC 4352; for MIC K. pneumoniae ATCC-BAA-2146: strain ATCC-BAA-2146; for MIC K. pneumoniae CCUG-59348: strain CCUG-59348
Procedure, shortened: as §2

MIC A. baumannii ATCC13424 (Acinetobacter baumannii [1])	MIC A. baumannii ATCCBAA-747 (Acinetobacter baumannii [1])	MIC A. baumannii CCUG57249 (Acinetobacter baumannii [1])	MIC A. baumannii NCTC 13423 (Acinetobacter baumannii [1])	MIC P. aeruginosa ATCC 27853 (Pseudomonas aeruginosa [2])	MIC P. aeruginosa ATCC-47 (Pseudomonas aeruginosa [2])	MIC P. aeruginosa ATCCCRM-9027 (Pseudomonas aeruginosa [2])	MIC P. aeruginosa CCUG 59626 (Pseudomonas aeruginosa [2])	MIC E. coli NCTC9001 (Escherichia coli [3])	MIC K. pneumoniae ATCC 4352 (Klebsiella pneumoniae [4])	MIC K. pneumoniae ATCC-BAA2146 (Klebsiella pneumoniae [4])	MIC K. pneumoniae CCUG-59348 (Klebsiella pneumoniae [4])	MIC A. baumannii CCUG57249 (Acinetobacter baumannii [5])	MIC A. baumannii NCTC 13423 (Acinetobacter baumannii [5])	MIC A. baumannii NCTC 13424 (Acinetobacter baumannii [5])	MIC P. aeruginosa ATCC 27853 (Pseudomonas aeruginosa [6])	MIC P. aeruginosa ATCC CRM-9027 (Pseudomonas aeruginosa [6])	MIC P. aeruginosa ATCC-47 (Pseudomonas aeruginosa [6])	MIC P. aeruginosa CCUG 59626 (Pseudomonas aeruginosa [6])	MIC E. coli ATCC25922 (Escherichia coli [7])	Structure (SMILES)	further results
0.25 micrograms/mL	0.5 micrograms/mL	0.5 micrograms/mL	0.125 micrograms/mL	0.125 micrograms/mL	1 micrograms/mL	0.125 micrograms/mL	≤0.06 micrograms/mL	16 micrograms/mL	0.5 micrograms/mL	4 micrograms/mL	>32 micrograms/mL	≤0.06 micrograms/mL	≤0.06 micrograms/mL	0.125 micrograms/mL	0.125 micrograms/mL	0.125 micrograms/mL	0.125 micrograms/mL	0.125 micrograms/mL	0.125 micrograms/mL	CC(C)C[C@@H]1NC(=O)[C@@H](Cc2ccccc2)NC(=O)[C@H](CCN)NC(=O)[C@@H](NC(=O)[C@H](CN)NC(=O)[C@@H](NC(=O)C2CCCC2N)C(C)O)CCNC(=O)[C@H](C(C)O)NC(=O)[C@H](CCN)NC(=O)[C@H](CCN)NC1=O (stereo partly drawn) [Example 43, [2-Amino-cyclopentane-carbonyl]-L-Thr-L-Dap-polymyxin B hepatapeptide, TFA salt] (X4-[Thr(3ξ)][Dap][Dab][Dab][dF]L[Dab][Dab][Thr(3ξ)]; lactam 3-C)	MIC E. coli ATCC25922 (Escherichia coli [3]; strain ATCC25922): 2 micrograms/mL; MIC A. baumannii ATCC BAA-747 (Acinetobacter baumannii [5]; strain ATCC BAA-747): 0.125 micrograms/mL; MIC E. coli NCTC9001 (Escherichia coli [7]; strain NCTC9001): 0.125 micrograms/mL; MIC K. pneumoniae ATCC 4352 (Klebsiella pneumoniae [8]): 0.125 micrograms/mL; MIC K. pneumoniae ATCC-BAA-2146 (Klebsiella pneumoniae [8]): 0.25 micrograms/mL; MIC K. pneumoniae CCUG-59348 (Klebsiella pneumoniae [8]): 2 micrograms/mL
1 micrograms/mL	2 micrograms/mL	2 micrograms/mL	1 micrograms/mL	0.25 micrograms/mL	1 micrograms/mL	0.125 micrograms/mL	0.125 micrograms/mL	16 micrograms/mL	0.25 micrograms/mL	2 micrograms/mL	32 micrograms/mL	0.25 micrograms/mL	0.125 micrograms/mL	0.125 micrograms/mL	0.5 micrograms/mL	0.5 micrograms/mL	0.25 micrograms/mL	0.25 micrograms/mL	≤0.06 micrograms/mL	CC(C)C[C@@H]1NC(=O)[C@@H](Cc2ccccc2)NC(=O)[C@H](CCN)NC(=O)[C@@H](NC(=O)[C@H](CN)NC(=O)[C@@H](NC(=O)C(O)C2CCCCC2)C(C)O)CCNC(=O)[C@H](C(C)O)NC(=O)[C@H](CCN)NC(=O)[C@H](CCN)NC1=O (stereo partly drawn) [Example 45, [2-cyclohexyl-2-hydroxyethanoyl]-L-Thr-L-Dap-polymyxin B heptapeptide, TFA salt] (ξHexahydromandeloyl-[Thr(3ξ)][Dap][Dab][Dab][dF]L[Dab][Dab][Thr(3ξ)]; lactam 3-C)	MIC K. pneumoniae ATCC 4352 (Klebsiella pneumoniae [8]): 0.25 micrograms/mL; MIC K. pneumoniae ATCC-BAA-2146 (Klebsiella pneumoniae [8]): 0.5 micrograms/mL; MIC K. pneumoniae CCUG-59348 (Klebsiella pneumoniae [8]): 1 micrograms/mL
